# Measurements published in PMC11649115, “In vitro safety evaluation of dopamine D3R antagonist, R-VK4-116, as a potential medication for the treatment of opioid use disorder” (PLOS ONE, 2024).
# What was measured:
# [1] = Metabolic stability in hepatocyte; details: human, hepatocytes
# Method: (§1) CYP3A4 substrate Midazolam (10 μM) was prepared and incubated in the same manner. […] In addition, in vitro half-life (t1/2, min) and intrinsic clearance (CLint, μl/min/10^6 cells) were calculated [10, 11].
# human hepatocytes = assay: Metabolic stability in hepatocyte; details: human hepatocytes, 10 μM
# Method: as §1
# [2] = Metabolic stability in hepatocyte; details: Sprague Dawley, rat, hepatocytes
# Method: as §1
# rat hepatocytes = assay: Metabolic stability in hepatocyte; details: rat hepatocytes, 10 μM
# Method: as §1
# [3] = Metabolic stability in hepatocyte; details: Beagle, dog, hepatocytes
# Method: as §1
# dog hepatocytes = assay: Metabolic stability in hepatocyte; details: dog hepatocytes, 10 μM
# Method: as §1
# [4] = Stability in the absence of hepatocytes; details: no hepatocytes, 10 μM
# Method: as §1
# [5] = Metabolic stability in liver microsomes
# [6] = Metabolic stability in liver microsomes; remark: listed apart in the source
# [7] = Metabolic stability in liver microsomes; details: for % remaining: dog liver microsomes, 10 μM
# [8] = Metabolic stability in liver microsomes; details: for % remaining: monkey liver microsomes, 10 μM
# P-gp = target: T1, P-gp (Homo sapiens, UniProt P08183); assay: Transporter mediated assay (substrate/inhibitor), MDCK-II cells; assay type: in vitro ADME; details: human, probe quinidine 0.1 μM
# T1 construct: expressed in transfected cells; host or cells: MDCK-II cells
# Method: (§2) The MDCK-II cells were treated to express the transporter of interest.
# (§3) For BCRP and P-gp, the apparent permeability Papp and Efflux Ratio (ER) were calculated [16]. Net basal (B) to apical (A) flux (B → A) of the substrate transport (pmol/min/cm^2) by BCRP or P-gp was calculated by subtracting A → B flux from B → A flux.
# HepG2 cells = assay: Mitochondrial toxicity (MT) assay panel; assay type: cell-based; details: HepG2, 100 µM
# Method: The assay results were presented as % cell viability. […] After each incubation, the cells were harvested and lysed to test the MT assay panel. The Zalcitabine (positive control) was also included in this assay (Fig 3 in S1 File). The levels of Mitochondrial Oxidative Phosphorylation (OXPHOS) complex 1 (NADH dehydrogenase; ab178011, lot #GR 3339973–1), complex 3 (CytC reductase; ab124537, lot #GR3276896-3), complex 4 (CytC Oxidase; ab179880, lot #GR3273194-1), and complex 5 (ATP synthase; ab124539, lot #GR3267780-4) in the cell lysates were determined using respective indirect ELISA as per manufacturer’s instructions. The total ATP content of the cell lysates was determined using an ATP assay kit (ab83355, lot #GR3314128-2, Abcam, Cambridge, MA). The Caspase 3 content of the cell lysates was determined using the Caspase-3 assay kit (ab39401, lot #GR3322733-1, Abcam, Cambridge, MA). In addition, the total glutathione content was determined using the total glutathione (GSSG/GSH) assay kit (STA-312, lot #09100263, Oxiselect™, San Diego, CA). Using an Oxiselect™ ROS/RNS assay kit (STA-347, lot #7081343, Cell Biolabs Inc. San Diego, CA), the ROS/RNS content of the cell lysates was determined by fluorescence assay.
# BCRP = target: T2, BCRP (Homo sapiens, UniProt Q9UNQ0); assay: Transporter mediated assay (substrate/inhibitor), MDCK-II cells; assay type: in vitro ADME; details: BCRP, substrate test, 2 µM
# T2 construct: expressed in transfected cells; host or cells: MDCK-II cells
# T2 sequence (Q9UNQ0 1-655): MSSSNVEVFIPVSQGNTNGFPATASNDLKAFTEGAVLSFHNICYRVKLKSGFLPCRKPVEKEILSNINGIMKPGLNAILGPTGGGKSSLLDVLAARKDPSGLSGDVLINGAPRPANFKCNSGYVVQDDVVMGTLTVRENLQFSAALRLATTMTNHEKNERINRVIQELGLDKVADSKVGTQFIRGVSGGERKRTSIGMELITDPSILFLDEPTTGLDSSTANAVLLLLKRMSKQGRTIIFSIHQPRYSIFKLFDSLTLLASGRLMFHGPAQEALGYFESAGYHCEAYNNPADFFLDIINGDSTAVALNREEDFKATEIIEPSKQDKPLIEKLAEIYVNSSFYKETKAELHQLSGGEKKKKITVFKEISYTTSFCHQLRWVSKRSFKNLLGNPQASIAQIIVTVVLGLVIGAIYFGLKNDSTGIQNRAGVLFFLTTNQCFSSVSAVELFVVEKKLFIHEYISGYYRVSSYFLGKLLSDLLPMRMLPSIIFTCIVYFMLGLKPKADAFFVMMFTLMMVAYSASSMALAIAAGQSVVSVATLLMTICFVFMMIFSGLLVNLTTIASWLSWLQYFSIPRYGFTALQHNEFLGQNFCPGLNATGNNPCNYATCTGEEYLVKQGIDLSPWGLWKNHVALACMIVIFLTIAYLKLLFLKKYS
# Method: as §2, §3
# T1 sequence (P08183 whole entry): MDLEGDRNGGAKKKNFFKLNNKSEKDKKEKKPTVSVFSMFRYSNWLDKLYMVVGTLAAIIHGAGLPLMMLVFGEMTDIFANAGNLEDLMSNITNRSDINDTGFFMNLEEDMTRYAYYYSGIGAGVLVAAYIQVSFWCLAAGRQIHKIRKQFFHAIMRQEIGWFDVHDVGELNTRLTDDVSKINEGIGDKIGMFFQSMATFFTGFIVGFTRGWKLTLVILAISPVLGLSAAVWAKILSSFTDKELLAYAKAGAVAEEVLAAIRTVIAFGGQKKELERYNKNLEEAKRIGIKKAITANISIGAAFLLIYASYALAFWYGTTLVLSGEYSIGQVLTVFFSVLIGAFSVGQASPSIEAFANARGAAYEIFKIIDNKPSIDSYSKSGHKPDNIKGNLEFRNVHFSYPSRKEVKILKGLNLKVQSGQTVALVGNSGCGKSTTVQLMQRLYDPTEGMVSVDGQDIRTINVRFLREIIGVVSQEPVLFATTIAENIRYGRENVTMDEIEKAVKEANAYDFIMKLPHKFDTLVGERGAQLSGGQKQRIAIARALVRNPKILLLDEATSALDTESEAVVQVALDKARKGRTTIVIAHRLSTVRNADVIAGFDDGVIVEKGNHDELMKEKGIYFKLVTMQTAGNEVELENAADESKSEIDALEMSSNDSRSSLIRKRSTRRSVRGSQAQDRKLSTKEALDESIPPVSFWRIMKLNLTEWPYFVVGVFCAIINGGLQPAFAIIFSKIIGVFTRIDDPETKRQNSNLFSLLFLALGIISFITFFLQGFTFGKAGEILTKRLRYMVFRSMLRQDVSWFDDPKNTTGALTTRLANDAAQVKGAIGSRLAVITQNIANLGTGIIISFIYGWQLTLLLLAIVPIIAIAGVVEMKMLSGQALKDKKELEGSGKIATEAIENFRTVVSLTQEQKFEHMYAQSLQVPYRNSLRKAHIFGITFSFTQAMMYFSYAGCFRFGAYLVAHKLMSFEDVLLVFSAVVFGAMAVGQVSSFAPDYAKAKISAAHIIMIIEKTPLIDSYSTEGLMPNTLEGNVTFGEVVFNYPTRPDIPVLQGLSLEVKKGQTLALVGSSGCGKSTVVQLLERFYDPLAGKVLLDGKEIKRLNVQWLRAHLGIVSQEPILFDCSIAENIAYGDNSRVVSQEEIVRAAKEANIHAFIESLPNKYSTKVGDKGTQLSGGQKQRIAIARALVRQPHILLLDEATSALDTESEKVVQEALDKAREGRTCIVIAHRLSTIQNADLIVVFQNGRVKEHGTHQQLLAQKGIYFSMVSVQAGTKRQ
smiles,measurement,setting,value
"Cc1ncc2n1-c1ccc(Cl)cc1C(c1ccccc1F)=NC2 [Midazolam, reference compound]",half-life at 10 μM,[1],4.45 h
same,hepatocyte CLint at 10 μM,[1],5.2 µL/min/1e6 cells
same,% remaining Vs T = 0 min,human hepatocytes; 0 min,100.0%
same,% remaining Vs T = 0 min,human hepatocytes; 30 min,91.7%
same,% remaining Vs T = 0 min,human hepatocytes; 60 min,85.3%
same,% remaining Vs T = 0 min,human hepatocytes; 90 min,80.7%
same,% remaining Vs T = 0 min,human hepatocytes; 120 min,72.4%
same,half-life at 10 μM,[2],3.22 h
same,hepatocyte CLint at 10 μM,[2],7.2 µL/min/1e6 cells
same,% remaining Vs T = 0 min,rat hepatocytes; 0 min,100.0%
same,% remaining Vs T = 0 min,rat hepatocytes; 30 min,89.0%
same,% remaining Vs T = 0 min,rat hepatocytes; 60 min,77.8%
same,% remaining Vs T = 0 min,rat hepatocytes; 90 min,70.5%
same,% remaining Vs T = 0 min,rat hepatocytes; 120 min,65.7%
same,half-life at 10 μM,[3],0.855 h
same,hepatocyte CLint at 10 μM,[3],27 µL/min/1e6 cells
same,% remaining Vs T = 0 min,dog hepatocytes; 0 min,100.0%
same,% remaining Vs T = 0 min,dog hepatocytes; 30 min,66.6%
same,% remaining Vs T = 0 min,dog hepatocytes; 60 min,50.8%
same,% remaining Vs T = 0 min,dog hepatocytes; 90 min,31.2%
same,% remaining Vs T = 0 min,dog hepatocytes; 120 min,19.5%
same,% remaining Vs T = 0 min,[4]; 0 min,100.0%
same,% remaining Vs T = 0 min,[4]; 30 min,97.7%
same,% remaining Vs T = 0 min,[4]; 60 min,97.6%
same,% remaining Vs T = 0 min,[4]; 90 min,98.6%
same,% remaining Vs T = 0 min,[4]; 120 min,98.5%
same,% remaining,"[5]; human liver microsomes, 10 μM, 120 min",0.0%
same,"remaining at 0 h, 10 μM","[5]; human, microsomes, pH 7.4",100%
same,"remaining at 0.5 h, 10 μM","[5]; human, microsomes, pH 7.4",9.7%
same,"remaining at 1 h, 10 μM","[5]; human, microsomes, pH 7.4",1%
same,"remaining at 1.5 h, 10 μM","[5]; human, microsomes, pH 7.4",0.2%
same,"remaining at 2 h, 10 μM","[5]; human, microsomes, pH 7.4",101%
same,% remaining,"[6]; rat liver microsomes, 10 μM, 120 min",0.0%
same,"remaining at 0 h, 10 μM","[6]; rat, microsomes, pH 7.4",100%
same,"remaining at 0.5 h, 10 μM","[6]; rat, microsomes, pH 7.4",5.8%
same,"remaining at 1 h, 10 μM","[6]; rat, microsomes, pH 7.4",0.4%
same,"remaining at 1.5 h, 10 μM","[6]; rat, microsomes, pH 7.4",0.1%
same,"remaining at 2 h, 10 μM","[6]; rat, microsomes, pH 7.4",102%
same,% remaining,[7]; 90 min,0.0%
same,% remaining,[7]; 120 min,0.0%
same,"remaining at 0 h, 10 μM","[7]; dog, microsomes, pH 7.4",100%
same,"remaining at 0.5 h, 10 μM","[7]; dog, microsomes, pH 7.4",0.3%
same,"remaining at 1 h, 10 μM","[7]; dog, microsomes, pH 7.4",0.1%
same,"remaining at 2 h, 10 μM","[7]; dog, microsomes, pH 7.4",95.8%
same,% remaining,[8]; 60 min,0.0%
same,% remaining,[8]; 90 min,0.0%
same,% remaining,[8]; 120 min,0.0%
same,"remaining at 0 h, 10 μM","[8]; monkey, microsomes, pH 7.4",100%
same,"remaining at 0.5 h, 10 μM","[8]; monkey, microsomes, pH 7.4",0.1%
same,"remaining at 2 h, 10 μM","[8]; monkey, microsomes, pH 7.4",91.8%
COc1cc2c(cc1OC)CN(CCc1ccc(NC(=O)c3cccc4c(=O)c5cccc(OC)c5[nH]c34)cc1)CC2 [elacridar],inhibition at 3 μM,P-gp,98.4 ± 0.53%
Nc1ccn([C@H]2CC[C@@H](CO)O2)c(=O)n1 [zalcitabine],"OXPHOS 5 and total ATP levels, caspase 3 or ROS/RNS levels",HepG2 cells; 2-week,No significant decrease
same,decrease in OXPHOS 1,HepG2 cells; 2-week,~ 80%
same,decrease in OXPHOS 3,HepG2 cells; 2-week,~ 20%
same,decrease in OXPHOS 4,HepG2 cells; 2-week,~ 70%
same,increase in total glutathione content,HepG2 cells; two weeks,~ 35%
"COc1cc2nc(N3CCN(C(=O)c4ccco4)CC3)nc(N)c2cc1OC [prazosin, reference compound]",Papp A→B at 2 µM,BCRP,8.06 ± 0.76 ×10⁻⁶ cm/s
same,Papp B→A at 2 µM,BCRP,47.7 ± 2.77 ×10⁻⁶ cm/s
